Source: patent US8101550B2, “Anthranilic acid diamide derivative with hetero-aromatic and hetero-cyclic substituents” (Bayer Cropscience AG, priority 2006, dated 2012)

Assay: log P determination by HPLC on reverse-phase column (EEC Directive 79/831 Annex V.A8)
Format: physicochemical
Method in brief: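 Reverse-phase C18 HPLC at 43 °C, following EEC Directive 79/831 Annex V.A8. Acidic LC-MS used pH 2.7 eluents (0.1% aqueous formic acid and acetonitrile with 0.1% formic acid) on a 10–95% acetonitrile linear gradient. Log P was interpolated linearly from retention times against unbranched C3–C16 alkan-2-ones of known log P.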

SMILES	logP
Cc1cc(F)cc(C(=O)NC(C)C)c1NC(=O)c1cc(Cn2cc(C(F)(F)C(F)(F)F)c(C(F)(F)C(F)(F)F)n2)nn1-c1ncccc1Cl [I-1-217]	4.47
Cc1cc(F)cc(C(=O)NC(C)C)c1NC(=O)c1cc(Cn2nc(C(F)(F)F)nc2C(F)(F)F)nn1-c1ncccc1Cl [I-1-218]	3.55
CNC(=O)c1cc(F)cc(C)c1NC(=O)c1cc(Cn2nc(C(F)(F)F)nc2C(F)(F)F)nn1-c1ncccc1Cl [I-1-219]	3.12
CNC(=O)c1cc(F)cc(C)c1NC(=O)c1cc(Cn2cc(C(F)(F)C(F)(F)F)c(C(F)(F)C(F)(F)F)n2)nn1-c1ncccc1Cl [I-1-220]	4.06
CNC(=O)c1cc(F)cc(C)c1NC(=O)c1cc(Cn2nc(C(F)(F)F)cc2C(F)(F)F)nn1-c1ncccc1Cl [I-1-221]	3.32
CNC(=O)c1cc(F)cc(C)c1NC(=O)c1cc(Cn2ccc(C(F)(F)F)n2)nn1-c1ncccc1Cl [I-1-222]	2.58
CNC(=O)c1cc(F)cc(C)c1NC(=O)c1cc(Cn2cc(Cl)c(C(F)(F)C(F)(F)F)n2)nn1-c1ncccc1Cl [I-1-223]	3.47
Cc1cc(F)cc(C(=O)NC(C)C)c1NC(=O)c1cc(Cn2cc(Cl)c(C(F)(F)C(F)(F)F)n2)nn1-c1ncccc1Cl [I-1-224]	3.89
Cc1cc(F)cc(C(=O)NC(C)C)c1NC(=O)c1cc(Cn2nc(C(F)(F)F)cc2C(F)(F)F)nn1-c1ncccc1Cl [I-1-225]	3.77
Cc1cc(F)cc(C(=O)NC(C)C)c1NC(=O)c1cc(Cn2ccc(C(F)(F)F)n2)nn1-c1ncccc1Cl [I-1-226]	3.00
CNC(=O)c1cc(I)cc(C)c1NC(=O)c1cc(Cn2nc(C(F)(F)F)cc2C(F)(F)F)nn1-c1ncccc1Cl [I-1-227]	3.87
CCNC(=O)c1cc(I)cc(C)c1NC(=O)c1cc(Cn2nc(C(F)(F)F)cc2C(F)(F)F)nn1-c1ncccc1Cl [I-1-228]	4.06
CCCNC(=O)c1cc(I)cc(C)c1NC(=O)c1cc(Cn2nc(C(F)(F)F)cc2C(F)(F)F)nn1-c1ncccc1Cl [I-1-229]	4.33
Cc1cc(I)cc(C(=O)NC(C)C)c1NC(=O)c1cc(Cn2nc(C(F)(F)F)cc2C(F)(F)F)nn1-c1ncccc1Cl [I-1-230]	4.29
Cc1cc(I)cc(C(=O)NC2CC2)c1NC(=O)c1cc(Cn2nc(C(F)(F)F)cc2C(F)(F)F)nn1-c1ncccc1Cl [I-1-231]	4.01
Cc1cc(I)cc(C(=O)NCC(F)(F)F)c1NC(=O)c1cc(Cn2nc(C(F)(F)F)cc2C(F)(F)F)nn1-c1ncccc1Cl [I-1-232]	5.28
Cc1cc(I)cc(C(=O)NC(C)C2CC2)c1NC(=O)c1cc(Cn2nc(C(F)(F)F)cc2C(F)(F)F)nn1-c1ncccc1Cl (stereo not drawn) [I-1-233]	4.55
Cc1cc(I)cc(C(N)=O)c1NC(=O)c1cc(Cn2nc(C(F)(F)F)cc2C(F)(F)F)nn1-c1ncccc1Cl [I-1-234]	3.56
Cc1cc(I)cc(C(=O)NCC2CC2)c1NC(=O)c1cc(Cn2nc(C(F)(F)F)cc2C(F)(F)F)nn1-c1ncccc1Cl [I-1-235]	4.34
Cc1cc(I)cc(C(=O)NC(C2CC2)C2CC2)c1NC(=O)c1cc(Cn2nc(C(F)(F)F)cc2C(F)(F)F)nn1-c1ncccc1Cl [I-1-236]	4.80
CNC(=O)c1cc(I)cc(C)c1NC(=O)c1cc(Cn2nc(C(F)(F)F)nc2C(F)(F)F)nn1-c1ncccc1Cl [I-1-237]	3.60

SMILES	logP
Cc1cc(I)cc(C(=O)NC(C)C)c1NC(=O)c1cc(Cn2nc(C(F)(F)F)nc2C(F)(F)F)nn1-c1ncccc1Cl [I-1-238]	4.06
CNC(=O)c1cc(I)cc(C)c1NC(=O)c1cc(Cn2cc(C(F)(F)C(F)(F)F)c(C(F)(F)C(F)(F)F)n2)nn1-c1ncccc1Cl [I-1-239]	4.51
Cc1cc(I)cc(C(=O)NC(C)C)c1NC(=O)c1cc(Cn2cc(C(F)(F)C(F)(F)F)c(C(F)(F)C(F)(F)F)n2)nn1-c1ncccc1Cl [I-1-240]	4.96
Cc1cc(I)cc(C(=O)NCC#N)c1NC(=O)c1cc(Cn2nc(C(F)(F)F)cc2C(F)(F)F)nn1-c1ncccc1Cl [I-1-241]	3.73
Cc1cc(I)cc(C(=O)NC(C)C)c1NC(=O)c1cc(Cn2cc(Cl)c(C(F)(F)C(F)(F)F)n2)nn1-c1ncccc1Cl [I-1-242]	4.40
CNC(=O)c1cc(I)cc(C)c1NC(=O)c1cc(Cn2cc(Cl)c(C(F)(F)C(F)(F)F)n2)nn1-c1ncccc1Cl [I-1-243]	3.96
CCNC(=O)c1cc(I)cc(C)c1NC(=O)c1cc(Cn2nc(C(F)(F)F)nc2C(F)(F)F)nn1-c1ncccc1Cl [I-1-244]	3.83
Cc1cc(I)cc(C(=O)NCC#N)c1NC(=O)c1cc(Cn2nc(C(F)(F)F)nc2C(F)(F)F)nn1-c1ncccc1Cl [I-1-245]	3.53
Cc1cc(I)cc(C(=O)NCC#N)c1NC(=O)c1cc(Cn2cc(Cl)c(C(F)(F)C(F)(F)F)n2)nn1-c1ncccc1Cl [I-1-246]	3.85
CNC(=O)c1cc(I)cc(C)c1NC(=O)c1cc(Cn2ccc(C(F)(F)F)n2)nn1-c1ncccc1Cl [I-1-247]	3.05
Cc1cc(I)cc(C(=O)NC(C)C)c1NC(=O)c1cc(Cn2ccc(C(F)(F)F)n2)nn1-c1ncccc1Cl [I-1-248]	3.51
Cc1cc(I)cc(C(=O)NC2CC2)c1NC(=O)c1cc(Cn2ccc(C(F)(F)F)n2)nn1-c1ncccc1Cl [I-1-249]	3.27
CCNC(=O)c1cc(I)cc(C)c1NC(=O)c1cc(Cn2ccc(C(F)(F)F)n2)nn1-c1ncccc1Cl [I-1-250]	3.28
Cc1cc(I)cc(C(=O)NCC#N)c1NC(=O)c1cc(Cn2ccc(C(F)(F)F)n2)nn1-c1ncccc1Cl [I-1-251]	3.04
Cc1cc(I)cc(C(=O)NC2CC2)c1NC(=O)c1cc(Cn2nc(C(F)(F)F)nc2C(F)(F)F)nn1-c1ncccc1Cl [I-1-252]	3.81
Cc1cc(I)cc(C(=O)NCC2CC2)c1NC(=O)c1cc(Cn2nc(C(F)(F)F)nc2C(F)(F)F)nn1-c1ncccc1Cl [I-1-253]	4.13
Cc1cc(I)cc(C(=O)NCC2CC2)c1NC(=O)c1cc(Cn2cc(Cl)c(C(F)(F)C(F)(F)F)n2)nn1-c1ncccc1Cl [I-1-254]	4.47
Cc1cc(I)cc(C(=O)N(C)C)c1NC(=O)c1cc(Cn2nc(C(F)(F)F)cc2C(F)(F)F)nn1-c1ncccc1Cl [I-1-256]	3.84
CNC(=O)c1cc(Cl)cc(C)c1NC(=O)c1cc(Cn2nc(C(F)F)c([N+](=O)[O-])c2C(F)F)nn1-c1ncccc1Cl [I-1-257]	2.92
Cc1cc(Cl)cc(C(=O)NC(C)C)c1NC(=O)c1cc(Cn2nc(C(F)F)c([N+](=O)[O-])c2C(F)F)nn1-c1ncccc1Cl [I-1-258]	3.32
CC(C)NC(=O)c1cc(Cl)cc(Cl)c1NC(=O)c1cc(Cn2nc(C(F)F)c([N+](=O)[O-])c2C(F)F)nn1-c1ncccc1Cl [I-1-259]	3.27

SMILES	logP
Cc1cc(Cl)cc(C(=O)NC2CC2)c1NC(=O)c1cc(Cn2nc(C(F)F)c([N+](=O)[O-])c2C(F)F)nn1-c1ncccc1Cl [I-1-260]	3.12
O=C(NC1CC1)c1cc(Cl)cc(Cl)c1NC(=O)c1cc(Cn2nc(C(F)F)c([N+](=O)[O-])c2C(F)F)nn1-c1ncccc1Cl [I-1-261]	3.08
CSc1ncn(Cc2cc(C(=O)Nc3c(C)cc(Cl)cc3C(=O)NC(C)C)n(-c3ncccc3Cl)n2)n1 [I-1-262]	2.31
CSc1ncn(Cc2cc(C(=O)Nc3c(C)cc(Cl)cc3C(=O)NC3CC3)n(-c3ncccc3Cl)n2)n1 [I-1-263]	2.13
CNC(=O)c1cc(Cl)cc(C)c1NC(=O)c1cc(Cn2cnc(SC)n2)nn1-c1ncccc1Cl [I-1-265]	1.94
CNC(=O)c1cc(Cl)cc(Cl)c1NC(=O)c1cc(Cn2nc(C(F)F)c([N+](=O)[O-])c2C(F)F)nn1-c1ncccc1Cl [I-1-266]	2.99
Cc1cc(I)cc(C(=O)NC(C)C)c1NC(=O)c1cc(Cn2nc(C(F)F)c([N+](=O)[O-])c2C(F)F)nn1-c1ncccc1Cl [I-1-267]	3.67
Cc1cc(I)cc(C(=O)NC2CC2)c1NC(=O)c1cc(Cn2nc(C(F)F)c([N+](=O)[O-])c2C(F)F)nn1-c1ncccc1Cl [I-1-268]	3.44
Cc1cc(Cl)cc(C(=O)NC(C)C)c1NC(=O)c1cc(Cn2nc(C)c(Br)c2C)nn1-c1ncccc1Cl [I-1-269]	3.4
CNC(=O)c1cc(Cl)cc(C)c1NC(=O)c1cc(Cn2nc(C)c(Br)c2C)nn1-c1ncccc1Cl [I-1-270]	2.95
Cc1cc(Cl)cc(C(=O)NC2CC2)c1NC(=O)c1cc(Cn2nc(C)c(Br)c2C)nn1-c1ncccc1Cl [I-1-271]	3.17
Cc1cc(I)cc(C(N)=O)c1NC(=O)c1cc(Cn2nc(C(F)(F)F)nc2C(F)(F)F)nn1-c1ncccc1Cl [I-1-272]	3.38
Cc1cc(I)cc(C(N)=O)c1NC(=O)c1cc(Cn2ccc(C(F)(F)F)n2)nn1-c1ncccc1Cl [I-1-273]	2.84
CCNC(=O)c1cc(I)cc(C)c1NC(=O)c1cc(Cn2cc(C(F)(F)C(F)(F)F)c(C(F)(F)C(F)(F)F)n2)nn1-c1ncccc1Cl [I-1-274]	4.74
Cc1cc(I)cc(C(=O)NC2CC2)c1NC(=O)c1cc(Cn2cc(C(F)(F)C(F)(F)F)c(C(F)(F)C(F)(F)F)n2)nn1-c1ncccc1Cl [I-1-275]	4.71
Cc1cc(I)cc(C(=O)NC2CC2)c1NC(=O)c1cc(Cn2cc(Cl)c(C(F)(F)C(F)(F)F)n2)nn1-c1ncccc1Cl [I-1-276]	4.15
CCNC(=O)c1cc(I)cc(C)c1NC(=O)c1cc(Cn2cc(Cl)c(C(F)(F)C(F)(F)F)n2)nn1-c1ncccc1Cl [I-1-277]	4.17
CNC(=O)c1cc(I)cc(C)c1NC(=O)c1cc(Cn2nc(C(F)F)c([N+](=O)[O-])c2C(F)F)nn1-c1ncccc1Cl [I-1-278]	3.25
Cc1cc(I)cc(C(=O)NC2CCCC2)c1NC(=O)c1cc(Cn2nc(C(F)(F)F)nc2C(F)(F)F)nn1-c1ncccc1Cl [I-1-279]	4.47
Cc1cc(I)cc(C(=O)NC2CCCCCCCCCCC2)c1NC(=O)c1cc(Cn2nc(C(F)(F)F)nc2C(F)(F)F)nn1-c1ncccc1Cl [I-1-280]	6.56
Cc1cc(I)cc(C(=O)NC2CCCCC2)c1NC(=O)c1cc(Cn2nc(C(F)(F)F)nc2C(F)(F)F)nn1-c1ncccc1Cl [I-1-281]	4.54
